In one assay the test system is HHD mice. Kind of assay: Generation of CTL in HLA-A*0201 transgenic HHD mice (immunogenicity). Format: in vivo, mouse. On the procedure: Generation of CTL in HLA-transgenic mice. HLA-transgenic mice were injected subcutaneously at the base of the tail with 100 μg of peptide emulsified in incomplete Freund's adjuvant (IFA) in the presence of 140 μg of the I-A^b restricted HBVcore-derived T-helper epitope (128-140; sequence TPPAYRPPNAPIL). After 11 days, spleen cells (5×10^7 cells in 10 mL) were stimulated in vitro with peptide (10 μM). On day 6 of culture, the bulk responder populations were tested for specific cytotoxicity. Upon response, the CTL line was then weekly re-stimulated in vitro with 20×10^6 35Gy irradiated spleen cells in the presence of 1 to 0.1 μM peptide and 50 U/mL IL-2 (Proleukin, Chiron Corp.). Cytotoxicity was assayed 6 days after the last stimulation and TNF-α secretion 11-13 days after, with the addition of 50 U/mL IL-2 on day 7. HHD mice transgenic for HLA-A*0201 were used. B7B7 Kd mice and mice transgenic for HLA-A*0301 are used for the study of the HLA-B*0701 and HLA-A*0301 restricted peptides respectively.

For assay [1], the system named is COS cells transfected with both Hsp70 and HHD expression vectors. Kind of assay: Peptide processing assay on COS-transfected cells, TNF-α secretion by murine CTL. Format: cell-based, simian. An excerpt: After contact of murine CTL lines with transfected COS cell, CTL recognition of COS cells is expressed as CTL secretion of TNF-α dosed in supernatant (X Axis, TNF-α ranges from 0 to 500 pg/ml). The graphs represent TNF-α dosage by cytotoxic cell lines, respectively mCTL380, mCTL391 mCTL393 and mCTL134, after contact with COS cells. In each graph, upper to lower bars represent the different cells in contact with CTL, respectively: negative control (no COS cell), COS cells, COS cells transfected with Hsp70 expression plasmid, COS cells transfected with HHD expression plasmid, positive control (COS cells transfected with HHD and pulsed with the respective peptide), COS cells transfected with HHD and with Hsp70 expression plasmids.
Peptide Processing Assay on COS-Transfected Cells. 2.2×10^4 simian COS cells were plated in flat-bottom 96 well plates in DMEM 10% FCS, in quadruplicates for each condition. 18 hours later, the medium is discarded, and 100 ng of each DNA plasmid, encoding for Hsp70 and HLA class I molecules, is put in contact with COS cells in DMEM 10% Nuserum […] Chloroquine 10 mg/mL DEAE Dextran. After 4 hours of incubation at 37° C., transfection medium is discarded, and 50 μL PBS 10% DMSO is added for 2 minutes for integration of plasmids. It is then discarded and transfected COS cells are placed in DMEM 10% FCS for 40 hours. Transfected COS cells are then used with 5×10^4 murine CTL in a TNF-α secretion assay.
TNF-α Secretion Assay. Transfected COS cells on day 4 or 10^5 target tumor cells were plated in 50 μL RPMI 10% FCS and when necessary incubated with 10 μM peptide for 1 hour. In blocking experiments, anti-HLA class I antibody w6/32 or an irrelevant antibody were incubated with target cells for 1 h30. 5×10^4 T cells were then added in 50 μL RPMI 10% FCS and incubated for 6 hours. Each condition was tested in quadruplicates. 50 μL of the supernatant was collected. Standard dilutions were prepared in 50 μL with final doses of TNF-α (kindly provided by I. Apfler, Bender Wien, Austria) ranging from 10^4 to 0.08 pg/mL. On both the supernatants and the standards were added 50 μL of 3×10^4 TNF-α sensitive WEHI-164c13 cells. They were incubated for 16 hours at 37° C. (23). Inhibition of cell proliferation was evaluated by the MTT colorimetric method. Briefly, 50 μL of MTT at 2.5 mg/mL (Sigma-Aldrich) was added and incubated for 4 hours at 37° C. Cells were then lyzed with 100 μL of a pH4.7 33% N,N-dimethyl formamide (Sigma-Aldrich) 20% SDS solution in water. Two hours after cells lysis, OD was measured at 550 nm on a Dynatech MR5000 spectrophotometer. TNF-α quantitation was calculated by linear interpolation with the standard dilutions.

As to LLLLDVAPL [HSP 391], the “induction of specific cytotoxic T cell immune response in HHD mice” value (shortened to “induction”) in the assay on HHD mice was “capable of generating a specific cytotoxic T cell immune response”. Further, the “processing of the peptide: recognition of Hsp70 + HHD transfected COS cells by the specific murine CTL line” value (“processing of the peptide” for short) in assay [1] was “are epitopes”.
As to LMGDKSENV [HSP 380], the “induction” value in the assay with HHD mice is “capable of generating a specific cytotoxic T cell immune response”. Moreover, the “processing of the peptide” value in assay [1] is “are epitopes”.
On to YLGYPVTNAV [HSP 134(10)], for which the “induction” value with HHD mice is “capable of generating a specific cytotoxic T cell immune response”. For the same sequence, the “processing of the peptide” value in assay [1] is on record as “are epitopes”.
